Data on eight compounds can be found in patent US5220017A, “Cholecystokinin antagonists” (Merck & Co., Inc., priority 1992, dated 1993).

Molecules are shown by their SMILES. Non-standard residues stand in square brackets, D forms with d. Residues, ends and D or L forms follow the SMILES beside them. *: point of attachment. sY = N[C@@H](Cc1ccc(OS(=O)(=O)O)cc1)C(=O)O; Cbz = O=C(OCc1ccccc1)*; Boc = CC(C)(C)OC(=O)*

One assay concerns CCK-B receptors. Particulars: literature, in words; cited from earlier work.
In another assay the test system is CCK receptor. Particulars: literature, in words; cited from earlier work.
Assay [1] has as its target T1, CCK receptor (rat pancreas) (Rattus norvegicus, UniProt P30551).
T1 construct: The whole pancreas was dissected free of fat tissue and was homogenized; from tissue; host or cells: whole pancreas membranes, male Sprague-Dawley rat
T1 sequence (P30551 1-444): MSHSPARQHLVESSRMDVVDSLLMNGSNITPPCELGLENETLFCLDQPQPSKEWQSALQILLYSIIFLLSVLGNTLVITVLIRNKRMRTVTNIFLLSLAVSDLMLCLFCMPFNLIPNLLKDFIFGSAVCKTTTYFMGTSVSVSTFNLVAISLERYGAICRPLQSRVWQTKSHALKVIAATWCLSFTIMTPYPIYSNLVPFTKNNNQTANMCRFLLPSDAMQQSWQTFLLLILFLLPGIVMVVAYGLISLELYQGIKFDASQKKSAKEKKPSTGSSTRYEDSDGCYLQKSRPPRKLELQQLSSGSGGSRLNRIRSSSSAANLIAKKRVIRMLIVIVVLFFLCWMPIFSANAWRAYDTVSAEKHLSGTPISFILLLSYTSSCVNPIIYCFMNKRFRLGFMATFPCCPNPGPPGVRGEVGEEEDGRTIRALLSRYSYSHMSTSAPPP
Briefly: CCK Receptor Binding (Pancreas), 125I-CCK-8 displacement. The arrangement: species or system rat (male Sprague-Dawley). The protocol:
1. CCK Receptor Binding (Pancreas)
CCK-8 sulphated was radiolabelled with ^125 I-Bolton Hunter reagent (2000 Ci/mmole). Receptor binding was performed according to Chang and Lotti (Proc. Natl. Acad. Sci. 83, 4923-4926, 1986) with minor modifications.
Male Sprague-Dawley rats (150-200 g) were sacrificed by decapitation. The whole pancreas was dissected free of fat tissue and was homogenized in 25 volumes of ice-cold 10 mM Hepes buffer with 0.1% soya bean trypsin inhibitor (pH 7.4 at 25° C.) with a Kinematica Polytron. The homogenates were centrifuged at 47,800 g for 10 min. Pellets were resuspended in 10 volumes of binding assay buffer (20 mM Hepes, 1 mM EGTA, 5 mM MgCl2, 150 mM NaCl, bacitracin 0.25 mg/ml, soya bean trypsin inhibitor 0.1 mg/ml, and bovine serum albumin 2 mg/ml, pH 6.5 at 25° C.) using a teflon homogenizer, 15 strokes at 500 rpm. The homogenate was further diluted in binding assay buffer to give a final concentration of 0.5 mg original wet weight/1 ml buffer. […] All assays were run in duplicate. […] The radioactivity on the filters was counted with a LKB gamma counter. […]
(§1) Drug displacement studies were performed with at least 10 concentrations of compounds of formula 1 and the IC50 values were determined by regression analysis.

Assay [2] addresses T2, CCK receptor (guinea pig brain cortex) (Cavia porcellus, UniProt H0VZC5).
T2 construct: the cortex was removed and homogenized in 25 mL ice-cold 0.32M sucrose; from tissue; host or cells: brain cortex P2 membranes, male Hartley guinea pig
T2 sequence (H0VZC5 1-426): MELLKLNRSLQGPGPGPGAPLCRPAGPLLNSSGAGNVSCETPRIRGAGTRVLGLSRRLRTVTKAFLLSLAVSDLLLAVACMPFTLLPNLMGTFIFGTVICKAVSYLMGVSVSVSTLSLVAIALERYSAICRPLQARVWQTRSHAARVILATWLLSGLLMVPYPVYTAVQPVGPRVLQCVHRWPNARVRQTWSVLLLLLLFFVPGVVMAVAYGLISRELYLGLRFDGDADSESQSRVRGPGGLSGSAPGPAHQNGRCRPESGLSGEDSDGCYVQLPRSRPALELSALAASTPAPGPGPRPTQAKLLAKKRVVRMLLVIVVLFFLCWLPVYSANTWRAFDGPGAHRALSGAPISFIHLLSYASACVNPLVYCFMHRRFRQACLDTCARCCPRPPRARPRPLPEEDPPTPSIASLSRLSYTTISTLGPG
Nature of the assay: CCK Receptor Binding (Brain), 125I-CCK-8 displacement. The arrangement: species or system guinea pig (male Hartley). As to conditions: guinea pig cortex membranes, 50 pM 125I-CCK-8, 25° C., 2 hours, pH 6.5. The protocol: 2. CCK Receptor Binding (Brain)
CCK-8 sulphated was radiolabelled and the binding was performed according to the description for the pancreas method with minor modifications.
Male Hartley guinea pigs (300-500 g) were sacrificed by decapitation and the cortex was removed and homogenized in 25 mL ice-cold 0.32M sucrose. The homogenates were centrifuged at 1000 g for 10 minutes and the resulting supernatant was recentrifuged at 20,000 g for 20 minutes. […] All assays were run in duplicate. The reaction mixtures were incubated at 25° C. for 2 hours and then the reaction was terminated on Whatman GF/C filters by rapid filtration (Brandell 24 well cell Harvester) with 3×5 ml washes of cold 100 mM NaCl. The radioactivity on the filters was then counted with a LKB gamma counter.
Effect of The Compounds of Formula I on ^125 I-CCK-8 receptor binding
as §1

The next assay concerns gastrin. As to conditions: literature, in words; cited from earlier work.

Consider `Cc1cccc(NC(=O)N[C@@H]2N=C(c3ccccc3)c3ccccc3N(C)C2=O)c1` [(R)-N-(2,3-dihydro-1-methyl-2-oxo-5-phenyl-1H-1,4-benzodiazepin-3-yl)-N^1-(3-methylphenyl) urea], for which the “CCK-B antagonist potency and selectivity” value in the assay on CCK-B receptors is “potent and selective antagonist of CCK-B receptors”.

Turning to `CSCC[C@H](NC(=O)OC(C)(C)C)C(=O)N[C@@H](CC(=O)O)C(=O)N[C@@H](Cc1ccccc1)C(N)=O` [Boc-Met-Asp-Phe-NH2] (Boc-Met-Asp-Phe-NH2), the CCK antagonist/agonist character entry in the assay with CCK receptor is on record as “can function as CCK antagonists”.

As to `CSCC[C@H](NC(=O)[C@H](Cc1ccc(OS(=O)(=O)O)cc1)NC(=O)OCc1ccccc1)C(=O)NCC(=O)N[C@@H](Cc1c[nH]c2ccccc12)C(=O)N[C@@H](CCSC)C(=O)N[C@@H](CC(=O)O)C(N)=O` [Cbz-Tyr(SO3 H)-Met-Gly-Trp-Met-Asp-NH2] (Cbz-[sY]MGWMD-NH2), in the assay on CCK receptor, the CCK antagonist/agonist character result was “partial agonist”.

For the compound `Cc1cccc(N(CCC(=O)O)C(=O)NC2N=C(c3ccccc3)c3ccccc3N(C)C2=O)c1` (stereo not shown) [Example 1, N-{1,3-Dihydro-1-methyl-2-oxo-5-phenyl-1H-1,4-benzodiazepin-3-yl}-N'-carboxyethyl-N'-{[3-methylphenyl]-urea}], the results for the IC50 in assay [1] and in assay [2] were > 3 µM and 3.68 µM, respectively.

Take `Cc1cccc(NC(=O)N(CCC(=O)O)C2N=C(c3ccccc3)c3ccccc3N(C)C2=O)c1` (stereo not shown) [Example 2, N-{1,3-Dihydro-1-methyl-2-oxo-5-phenyl-1H-1,4-benzodiazepin-3-yl}-N-carboxyethyl-N'-{[3-methylphenyl]-urea}]: the IC50 (usually the midpoint of a concentration-inhibition curve) in assay [1] is > 3 µM; in assay [2] it was 0.51 µM.

Turning to `CSCC[C@H](N)C(=O)N[C@@H](CC(=O)O)C(=O)N[C@@H](Cc1ccccc1)C(N)=O` [Met-Asp-Phe-NH2] (H-Met-Asp-Phe-NH2), the CCK antagonist/agonist character result in the assay with CCK receptor was “can function as CCK antagonists”.

`CCCC(=O)Nc1nc2c(ncn2C2O[C@H]3COP(=O)(O)O[C@@H]3[C@@H]2OC(=O)CCC)c(=O)[nH]1` (stereo partly shown) [dibutyryl cyclic GMP]: in the assay with CCK receptor, the CCK antagonist/agonist character result is on record as “most potent”.

For the compound `CCCN(CCC)C(=O)C(CCC(=O)O)NC(=O)c1ccccc1` (stereo not shown) [proglumide], the “gastrin antagonism in vitro” value in the assay on gastrin is “very weak in vitro antagonists”.
